In patent publication US10750742B2, “Pesticidally active pyrazole derivatives” (SYNGENTA PARTICIPATIONS AG, priority 2015, dated 2020):
Like-named read-outs stand apart in the source and are kept apart here.

Tests used:
Type in all cases: in vivo
Spodoptera littoralis = Spodoptera littoralis (Egyptian cotton leaf worm), cotton leaf disc spray test; details: foliar, 72 h, read-out: control (at least one of mortality, anti-feedant effect, growth inhibition); for percent control (mortality, anti-feedant effect or growth inhibition) at 200 ppm: application rate 200 ppm, L1 larvae, 3 days after infestation
Description: Spodoptera littoralis (Egyptian Cotton Leaf Worm)
Cotton leaf discs were placed on agar in 24-well microtiter plates and sprayed with aqueous test solutions prepared from 10′000 ppm DMSO stock solutions. After drying the leaf discs were infested with five L1 larvae. The samples were assessed for mortality, anti-feedant effect, and growth inhibition in comparison to untreated samples 3 days after infestation. Control of Spodoptera littoralis by a test sample is when at least one of mortality, anti-feedant effect, and growth inhibition is higher than the untreated sample.

Plutella xylostella = Plutella xylostella (diamond back moth), artificial diet test; details: 120 h, read-out: control (mortality and growth inhibition)
Description: Plutella xylostella (Diamond Back Moth):
(§1) 24-well microtiter plates with artificial diet were treated with aqueous test solutions prepared from 10′000 ppm DMSO stock solutions by pipetting. After drying, the plates were infested with L2 larvae (10 to 15 per well). The samples were assessed for mortality and growth inhibition in comparison to untreated samples 5 days after infestation.

Diabrotica balteata = Diabrotica balteata (corn root worm), maize sprout test; details: 96 h, read-out: control (mortality and growth inhibition)
Description: Diabrotica balteata, (Corn Root Worm)
as §1, with “Maize sprouts, placed on an agar layer in 24-well” for “24-well”, “plates” for “plates with artificial diet”, “spraying.” for “pipetting.”, “(6” for “(10”, “10” for “15”, “4” for “5”

Thrips tabaci = Thrips tabaci (onion thrips), sunflower leaf disc test; details: foliar, 144 h, read-out: control (mortality)
Description: Thrips tabaci (Onion Thrips):
(§2) Sunflower leaf discs were placed on agar in 24-well microtiter plates and sprayed with aqueous test solutions prepared from 10′000 ppm DMSO stock solutions. After drying the leaf discs were infested with a thrips population of mixed ages. The samples were assessed for mortality 6 days after infestation.

Tetranychus urticae = Tetranychus urticae (two-spotted spider mite), bean leaf disc test; details: foliar, 192 h, read-out: control (mortality on mixed population, mobile stages)
Description: Tetranychus urticae (Two-Spotted Spider Mite):
as §2, with “Bean” for “Sunflower”, “discs” for “discs were placed”, “were” for “and”, “mite” for “thrips”, “on mixed population (mobile stages) 8” for “6”

Euschistus heros = Euschistus heros (neotropical brown stink bug), soybean leaf test; details: 120 h, read-out: effect in at least one of the two categories (mortality or growth inhibition); for percent effect (mortality or growth inhibition) at 200 ppm: application rate 200 ppm, N2 nymphs, 5 days after infestation
Description: Euschistus heros (Neotropical Brown Stink Bug):
Soybean leaves on agar in 24-well microtiter plates were sprayed with aqueous test solutions prepared from 10′000 ppm DMSO stock solutions. After drying the leaves were infested with N2 nymphs. The samples were assessed for mortality and growth inhibition in comparison to untreated samples 5 days after infestation.

Myzus persicae = Myzus persicae (green peach aphid), sucrose solution / Parafilm test; details: 120 h
From the text: Myzus persicae (Green Peach Aphid):
Test compounds were applied by pipette into 24 well plates and mixed with Sucrose solution. Application rate: 12.5 ppm. The plates were closed with a stretched parafilm. A plastic stencil with 24 holes is placed onto the plate and infested pea seedlings were placed directly on the Parafilm. The infested plate is closed with a gel blotting paper and another plastic stencil and then turned upside down. 5 days after infestation the samples were checked on mortality.

[1] = application rate 200 ppm, L2 larvae, 5 days after infestation
[2] = application rate 200 ppm, L2 larvae, 4 days after infestation
[3] = application rate 200 ppm, mixed ages, 6 days after infestation
[4] = application rate 200 ppm, 8 days after infestation
[5] = test rate of 12 ppm, sucrose solution, 5 days after infestation, read-out: mortality

Cn1nc(OC(F)(F)C(F)C(F)(F)F)c(C(F)(F)F)c1-n1cc(-c2ccc(Cl)c(C(=O)N(/C(F)=C(\F)C(F)(F)F)C3(C#N)CC3)c2)cn1 (stereo not drawn) [compound 7]
≥ 80%: percent control (mortality, anti-feedant effect or growth inhibition) at 200 ppm (Spodoptera littoralis) | mortality at 200 ppm (Plutella xylostella; [1]) | mortality at 200 ppm (Diabrotica balteata; [2]) | mortality at 200 ppm (Thrips tabaci; [3]) | mortality at 200 ppm (Tetranychus urticae; [4])

CCNC(=O)c1cc(-c2cnn(-c3c(C(F)(F)F)c(OC(F)(F)C(F)C(F)(F)F)nn3C)c2)ccc1Cl (stereo not drawn) [compound 9]
≥ 80%: percent control (mortality, anti-feedant effect or growth inhibition) at 200 ppm (Spodoptera littoralis) | mortality at 200 ppm (Plutella xylostella; [1]) | mortality at 200 ppm (Diabrotica balteata; [2]) | mortality at 200 ppm (Thrips tabaci; [3]) | mortality at 200 ppm (Tetranychus urticae; [4]) | percent effect (mortality or growth inhibition) at 200 ppm (Euschistus heros) | mortality at 12 ppm (Myzus persicae; [5])

Cn1nc(OC(F)(F)C(F)C(F)(F)F)c(C(F)(F)F)c1-n1cc(-c2ccc(Cl)c(C(=O)NCC#N)c2)cn1 (stereo not drawn) [compound 10]
≥ 80%: percent control (mortality, anti-feedant effect or growth inhibition) at 200 ppm (Spodoptera littoralis) | mortality at 200 ppm (Plutella xylostella; [1]) | mortality at 200 ppm (Diabrotica balteata; [2]) | mortality at 200 ppm (Thrips tabaci; [3]) | mortality at 200 ppm (Tetranychus urticae; [4]) | mortality at 12 ppm (Myzus persicae; [5])

Cn1nc(OC(F)(F)C(F)=C(C(F)(F)F)C(F)(F)F)c(C(F)(F)F)c1-n1cc(-c2ccc(Cl)c(C(=O)NC3(C#N)CC3)c2)cn1 [compound 14]
≥ 80%: mortality at 200 ppm (Tetranychus urticae; [4])

Cn1nc(OS(=O)(=O)C(F)(F)F)c(C(F)(F)F)c1-n1cc(-c2ccc(Cl)c(C(=O)NC3(C#N)CC3)c2)cn1 [compound 16]
≥ 80%: percent control (mortality, anti-feedant effect or growth inhibition) at 200 ppm (Spodoptera littoralis) | mortality at 200 ppm (Plutella xylostella; [1]) | mortality at 200 ppm (Diabrotica balteata; [2]) | mortality at 200 ppm (Thrips tabaci; [3]) | mortality at 200 ppm (Tetranychus urticae; [4]) | percent effect (mortality or growth inhibition) at 200 ppm (Euschistus heros)

Cn1nc(OCCCCC(F)=C(F)F)c(C(F)(F)F)c1-n1cc(-c2ccc(Cl)c(C(=O)NC3(C#N)CC3)c2)cn1 [compound 21]
≥ 80%: mortality at 200 ppm (Tetranychus urticae; [4]) | percent effect (mortality or growth inhibition) at 200 ppm (Euschistus heros)

Cn1nc(OCC(F)(F)C(F)(F)C(F)(F)C(F)(F)C(F)(F)C(F)(F)C(F)(F)F)c(C(F)(F)F)c1-n1cc(-c2ccc(Cl)c(C(=O)NC3(C#N)CC3)c2)cn1 [compound 22]
≥ 80%: mortality at 200 ppm (Spodoptera littoralis) | mortality at 200 ppm (Plutella xylostella) | mortality at 200 ppm (Diabrotica balteata)

Cn1nc(OCCOC(F)(F)F)c(C(F)(F)F)c1-n1cc(-c2ccc(Cl)c(C(=O)NC3(C#N)CC3)c2)cn1 [compound 28]
≥ 80%: percent effect (mortality or growth inhibition) at 200 ppm (Euschistus heros) | mortality at 12 ppm (Myzus persicae; [5])

Cn1nc(OCCCCC(F)=C(F)F)c(C(F)(F)F)c1-n1cc(-c2ccc(Cl)c(C(=O)NC3CC3)c2)cn1 [compound 29]
≥ 80%: mortality at 200 ppm (Diabrotica balteata; [2])

Cn1nc(OCC(F)(F)C(F)(F)C(F)(F)C(F)(F)C(F)(F)C(F)(F)C(F)(F)F)c(C(F)(F)F)c1-n1cc(-c2ccc(Cl)c(C(=O)NC3CC3)c2)cn1 [compound 31]
≥ 80%: mortality at 200 ppm (Plutella xylostella)

Cn1nc(OS(=O)(=O)C(F)(F)C(F)(F)C(F)(F)C(F)(F)F)c(C(F)(F)F)c1-n1cc(-c2ccc(Cl)c(C(=O)NC3(C#N)CC3)c2)cn1 [compound 36]
≥ 80%: mortality at 200 ppm (Plutella xylostella) | mortality at 200 ppm (Diabrotica balteata) | mortality at 200 ppm (Thrips tabaci) | percent control (mortality or growth inhibition) at 200 ppm (Euschistus heros) | mortality at 12 ppm (Myzus persicae)

Cn1nc(OS(=O)(=O)C(F)(F)C(F)(F)C(F)(F)C(F)(F)F)c(C(F)(F)F)c1-n1cc(-c2ccc(Cl)c(C(=O)NC3CC3)c2)cn1 [compound 37]
≥ 80%: mortality at 200 ppm (Plutella xylostella) | mortality at 200 ppm (Diabrotica balteata) | mortality at 200 ppm (Thrips tabaci) | percent control (mortality or growth inhibition) at 200 ppm (Euschistus heros) | mortality at 12 ppm (Myzus persicae)

Cn1nc(OC(F)(F)C(F)(F)C(F)(F)C(F)(F)C(F)(F)C(F)(F)F)c(C(F)(F)F)c1-n1cc(-c2ccc(Cl)c(C(=O)NC3(C#N)CC3)c2)cn1 [compound 38]
≥ 80%: mortality at 200 ppm (Spodoptera littoralis) | mortality at 200 ppm (Plutella xylostella) | mortality at 200 ppm (Diabrotica balteata) | mortality at 200 ppm (Thrips tabaci) | percent control (mortality or growth inhibition) at 200 ppm (Euschistus heros)

Cn1nc(OC(F)(F)C(F)(F)C(F)(F)C(F)(F)C(F)(F)C(F)(F)F)c(C(F)(F)F)c1-n1cc(-c2ccc(Cl)c(C(=O)NC3CC3)c2)cn1 [compound 39]
≥ 80%: mortality at 200 ppm (Spodoptera littoralis) | mortality at 200 ppm (Plutella xylostella) | mortality at 200 ppm (Diabrotica balteata) | mortality at 200 ppm (Thrips tabaci) | mortality at 200 ppm (Tetranychus urticae) | percent control (mortality or growth inhibition) at 200 ppm (Euschistus heros)

Cn1nc(O/C(=C(/F)C(F)(F)F)C(F)(F)F)c(C(F)(F)F)c1-n1cc(-c2ccc(Cl)c(C(=O)NC3(C#N)CC3)c2)cn1 [compound 42]
≥ 80%: percent control (mortality, anti-feedant effect or growth inhibition) at 200 ppm (Spodoptera littoralis) | mortality at 200 ppm (Plutella xylostella; [1]) | mortality at 200 ppm (Diabrotica balteata; [2]) | percent effect (mortality or growth inhibition) at 200 ppm (Euschistus heros)

Cn1nc(OCCC(F)=C(F)F)c(C(F)(F)F)c1-n1cc(-c2ccc(Cl)c(C(=O)NC3(C#N)CC3)c2)cn1 [compound 46]
≥ 80%: percent control (mortality, anti-feedant effect or growth inhibition) at 200 ppm (Spodoptera littoralis) | mortality at 200 ppm (Plutella xylostella; [1]) | mortality at 200 ppm (Thrips tabaci; [3])

Cn1nc(O/C(F)=C/C(F)(F)F)c(C(F)(F)F)c1-n1cc(-c2ccc(Cl)c(C(=O)NC3(C#N)CC3)c2)cn1 [compound 48]
≥ 80%: percent control (mortality, anti-feedant effect or growth inhibition) at 200 ppm (Spodoptera littoralis) | mortality at 200 ppm (Plutella xylostella; [1]) | mortality at 200 ppm (Diabrotica balteata; [2]) | mortality at 200 ppm (Thrips tabaci; [3]) | mortality at 200 ppm (Tetranychus urticae; [4]) | percent effect (mortality or growth inhibition) at 200 ppm (Euschistus heros) | mortality at 12 ppm (Myzus persicae; [5])

Cn1nc(O/C(=C\F)C(F)(F)F)c(C(F)(F)F)c1-n1cc(-c2ccc(Cl)c(C(=O)NC3(C#N)CC3)c2)cn1 [compound 49]
≥ 80%: percent control (mortality, anti-feedant effect or growth inhibition) at 200 ppm (Spodoptera littoralis) | mortality at 200 ppm (Tetranychus urticae; [4]) | percent effect (mortality or growth inhibition) at 200 ppm (Euschistus heros) | mortality at 12 ppm (Myzus persicae; [5])

Cn1nc(OC(F)(F)C(F)(C(F)=C(F)C(F)(F)F)C(F)(F)F)c(C(F)(F)F)c1-n1cc(-c2ccc(Cl)c(C(=O)NC3CC3)c2)cn1 (stereo not drawn) [compound 51]
≥ 80%: percent control (mortality, anti-feedant effect or growth inhibition) at 200 ppm (Spodoptera littoralis) | mortality at 200 ppm (Plutella xylostella; [1]) | mortality at 200 ppm (Diabrotica balteata; [2]) | mortality at 200 ppm (Thrips tabaci; [3]) | mortality at 200 ppm (Tetranychus urticae; [4]) | percent effect (mortality or growth inhibition) at 200 ppm (Euschistus heros) | mortality at 12 ppm (Myzus persicae; [5])

Cn1nc(OC(F)=C(F)C(F)(F)F)c(C(F)(F)F)c1-n1cc(-c2ccc(Cl)c(C(=O)NC3(C#N)CC3)c2)cn1 [compound 52]
≥ 80%: mortality at 200 ppm (Thrips tabaci; [3]) | mortality at 200 ppm (Tetranychus urticae; [4]) | percent effect (mortality or growth inhibition) at 200 ppm (Euschistus heros) | mortality at 12 ppm (Myzus persicae; [5])

Cn1nc(SCCC(F)(F)C(F)(F)C(F)(F)C(F)(F)C(F)(F)C(F)(F)F)c(Br)c1-n1cc(-c2ccc(Cl)c(C(=O)NC3CC3)c2)cn1 [compound 54]
≥ 80%: mortality at 200 ppm (Spodoptera littoralis) | mortality at 200 ppm (Plutella xylostella)

COc1nn(C)c(-n2cc(-c3ccc(Cl)c(C(=O)N(C)C4(C#N)CC4)c3)cn2)c1C(F)(F)F [compound 56]
≥ 80%: mortality at 200 ppm (Plutella xylostella; [1]) | mortality at 200 ppm (Diabrotica balteata; [2]) | mortality at 12 ppm (Myzus persicae; [5])

Cn1nc(SCC(F)(F)C(F)F)c(Br)c1-n1cc(-c2ccc(Cl)c(C(=O)NC3CC3)c2)cn1 [compound 57]
≥ 80%: percent control (mortality, anti-feedant effect or growth inhibition) at 200 ppm (Spodoptera littoralis)

Cn1nc(OC(Cl)(Cl)C(Cl)=C(Cl)Cl)c(C(F)(F)F)c1-n1cc(-c2ccc(Cl)c(C(=O)NC3CC3)c2)cn1 [compound 67]
≥ 80%: mortality at 200 ppm (Diabrotica balteata; [2]) | mortality at 200 ppm (Thrips tabaci; [3])

Cn1nc(OC(F)(F)C(F)C(F)(F)F)c(C(F)(F)F)c1-n1cc(-c2cccc(C(=O)NC3CC3)c2F)cn1 (stereo not drawn) [compound 68]
≥ 80%: percent control (mortality, anti-feedant effect or growth inhibition) at 200 ppm (Spodoptera littoralis) | mortality at 200 ppm (Diabrotica balteata; [2]) | mortality at 200 ppm (Thrips tabaci; [3]) | mortality at 200 ppm (Tetranychus urticae; [4])
